Data from PMC7037682, “Herb–Drug Interaction of Red Ginseng Extract and Ginsenoside Rc with Valsartan in Rats” (Molecules, 2020).
Where two headings read alike, the source gives them in different places.

What was measured:
OAT3 = biological target: T1, OAT3 (Homo sapiens, UniProt Q8TCC7); assay: Inhibition of OAT3-mediated [3H]ES uptake in HEK293-OAT3 cells
T1 sequence (Q8TCC7 1-542): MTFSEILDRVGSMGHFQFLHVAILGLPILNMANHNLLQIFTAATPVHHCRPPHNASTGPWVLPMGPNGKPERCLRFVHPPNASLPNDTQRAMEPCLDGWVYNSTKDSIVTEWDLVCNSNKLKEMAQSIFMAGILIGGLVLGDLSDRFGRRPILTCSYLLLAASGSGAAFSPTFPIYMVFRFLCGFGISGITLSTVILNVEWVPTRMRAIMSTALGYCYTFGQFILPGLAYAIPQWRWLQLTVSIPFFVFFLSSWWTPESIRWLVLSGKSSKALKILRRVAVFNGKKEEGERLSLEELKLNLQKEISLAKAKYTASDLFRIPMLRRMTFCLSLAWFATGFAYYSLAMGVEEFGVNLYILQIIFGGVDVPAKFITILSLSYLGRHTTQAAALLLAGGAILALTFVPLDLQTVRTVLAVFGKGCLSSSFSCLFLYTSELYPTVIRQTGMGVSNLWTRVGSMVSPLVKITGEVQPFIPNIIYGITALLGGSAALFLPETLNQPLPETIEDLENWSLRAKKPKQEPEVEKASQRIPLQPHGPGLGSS
Method: (§1) HEK293 cells overexpressing the OCT1, OCT2, OAT1, OAT3, OATP1B1, and OATP1B3 transporters (HEK293-OCT1, -OCT2, -OAT1, -OAT3, -OATP1B1, and -OATP1B3, respectively) and HEK293-mock cells (Corning Life Sciences; Woburn, MA, USA) were used and characterized as previously described.
(§2) HEK293 cells overexpressing drug transporters and HEK293-mock cells were seeded in poly-D-lysine-coated 96-well plates at a density of 10^5 cells/well and were cultured in DMEM supplemented with 10% FBS, 5 mM non-essential amino acids, and 2 mM sodium butyrate in a humidified atmosphere with 8% CO2 at 37 °C.
(§3) To examine the effects of ginsenosides and typical inhibitors on transporter activity, aliquots (100 μL) of HBSS containing the probe substrate and ginsenosides or typical inhibitors were added to the cells after aspirating pre-incubated HBSS. The concentrations and probe substrates were as follows: 0.1 μM [^3H]MPP^+ for OCT1 and OCT2, 0.1 μM [^3H]PAH for OAT1, 0.1 μM [^3H]ES for OAT3 and OATP1B1, and 0.1 μM [^3H]EG for OATP1B3. […] Then the uptake of probe substrates into HEK293-mock cells and HEK293-OCT1, -OCT2, -OAT1, -OAT3, -OATP1B1, and -OATP1B3 cells in the presence and absence of typical inhibitor or each ginsenoside with previously described concentration range was measured for 5 min. Immediately after placing the plates on ice, the cells were washed three times with 100 μL of ice-cold HBSS, followed by lysing with 50 μL of 10% SDS solution and mixing with 150 μL of Optiphase cocktail solution (Perkin Elmer Inc., Boston, MA, USA). The radioactivity of the probe substrates in the cells was determined using a liquid scintillation counter.
(§4) In the inhibition studies, the uptake rate of substrate by HEK293 cells overexpressing the respective transporters was used as the control (100%) and the uptake rate of substrates in the presence of typical inhibitors or ginsenosides expressed as a percentage of the control. The inhibition data were fitted to an inhibitory effect model using Sigma plot (version 10.0; Systat Software Inc., San Jose, CA, USA). IC50 value indicated the half-maximal inhibitory concentration of the inhibitor.

OCT1 = biological target: T2, OCT1 (Homo sapiens, UniProt O15245); assay: Inhibition of OCT1-mediated [3H]MPP+ uptake in HEK293-OCT1 cells
T2 sequence (O15245 1-554): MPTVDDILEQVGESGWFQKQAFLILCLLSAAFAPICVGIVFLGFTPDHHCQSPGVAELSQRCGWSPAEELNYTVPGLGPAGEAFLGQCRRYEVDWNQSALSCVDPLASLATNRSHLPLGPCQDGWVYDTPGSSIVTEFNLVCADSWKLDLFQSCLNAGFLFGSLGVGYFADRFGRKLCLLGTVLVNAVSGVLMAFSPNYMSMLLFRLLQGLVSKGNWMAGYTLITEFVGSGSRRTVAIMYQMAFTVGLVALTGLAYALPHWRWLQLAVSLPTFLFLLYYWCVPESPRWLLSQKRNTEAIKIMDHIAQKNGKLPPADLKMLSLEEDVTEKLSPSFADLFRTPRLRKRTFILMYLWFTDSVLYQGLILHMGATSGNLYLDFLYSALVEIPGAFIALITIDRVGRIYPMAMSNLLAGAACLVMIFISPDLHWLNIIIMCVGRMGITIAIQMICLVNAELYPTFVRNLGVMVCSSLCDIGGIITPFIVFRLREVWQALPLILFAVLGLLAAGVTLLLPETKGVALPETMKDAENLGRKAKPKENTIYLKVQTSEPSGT
Method: as §1, §2, §3, §4

[1] = Plasma pharmacokinetics of ginsenosides in rats after 1-week repeated RGE; details: for detection in rat plasma: LC-MS/MS, after RGE 1.5 g/kg/day po for 1 week; for AUC / Cmax / MRT / Tmax / half-life: rat, plasma, po, 1.5 g/kg/day
Method: The rats were randomly divided into the control and RGE groups. The RGE group received a RGE suspension (1.5 g/mL/kg/day, in distilled water) for 7 days via oral gavage. The control group received distilled water for 7 days via oral gavage. After 1 h following the last RGE treatment, valsartan was injected intravenously to both groups via the tail vein at 1 mg/mL/kg (dissolved in DMSO: saline = 2:8, v/v). […] After centrifugation of the blood samples at 16,000× g for 10 min, aliquots (50 μL each) of plasma samples were stored at −80 °C until the analysis of ginsenosides and valsartan.
The residue was reconstituted with 100 μL of 70% methanol consisting of 0.1% formic acid. An aliquot (20 μL) from the sample was injected into the LC-MS/MS system.
After freezing the aqueous layer at −80 °C for 2 h, the upper organic layer was transferred to a clean tube and evaporated to dryness. […] An aliquot (20 μL) from the sample was injected into the LC-MS/MS system. The samples were eluted through an Omega Polar C18 column (2.1 mm × 100 mm, 3 µm particle size) (Phenomenex, Torrance, CA, USA) using a mobile phase consisting of 0.1% formic acid in water: 0.1% formic acid in methanol (15:85, v/v) at a flow rate of 0.2 mL/min.
Pharmacokinetic parameters were calculated from plasma concentration-time profile using non-compartment analysis of WinNonlin (version 5.1; Pharsights, Cary, NC, USA). The statistical significance was assessed by t-test using Statistical Package for the Social Sciences (version 24.0; SPSS Inc., Chicago, IL, USA).

| IC50 (OAT3; read-out: IC50 OAT3, HEK293-OAT3, 0.1 μM [3H]ES uptake, 5 min) | IC50 (OCT1; read-out: IC50 OCT1, HEK293-OCT1, 0.1 μM [3H]MPP+ uptake, 5 min) | detection in rat plasma [1] | IC50 (OAT3) | IC50 (OCT1) | AUC [1] | Cmax [1] | MRT [1] | Tmax [1] | half-life [1] | maximum plasma concentration (molar) ([1]; rat plasma, after RGE 1.5 g/kg/day po for 7 days) | Structure (SMILES) |
| --- | --- | --- | --- | --- | --- | --- | --- | --- | --- | --- | --- |
| – | – | – | > 100 µM | > 100 µM | 164 ± 39.1 ng·h/mL | 5.1 ± 0.74 ng/mL | 20.8 ± 1.68 h | 2.17 ± 1.76 h | 43.5 ± 17.5 h | 5.3 nM | CC(C)=CCC[C@](C)(O[C@@H]1O[C@H](CO)[C@@H](O)[C@H](O)[C@H]1O)[C@H]1CC[C@]2(C)[C@@H]1[C@H](O)C[C@@H]1[C@@]3(C)CC[C@H](O[C@@H]4O[C@H](CO)[C@@H](O)[C@H](O)[C@H]4O[C@@H]4O[C@H](CO)[C@@H](O)[C@H](O)[C@H]4O)C(C)(C)[C@@H]3CC[C@]12C [Rd, ginsenoside Rd] |
| – | – | not detected | > 100 µM | > 100 µM | – | – | – | – | – | – | CC(C)=CCC[C@](C)(O[C@@H]1O[C@H](CO)[C@@H](O)[C@H](O)[C@H]1O)[C@H]1CC[C@]2(C)[C@@H]1[C@H](O)C[C@@H]1[C@@]3(C)CC[C@H](O)C(C)(C)[C@@H]3[C@@H](O[C@@H]3O[C@H](CO)[C@@H](O)[C@H](O)[C@H]3O[C@@H]3O[C@@H](C)[C@H](O)[C@@H](O)[C@H]3O)C[C@]12C [Re, ginsenoside Re] |

The remaining lines, values behind:

| Structure (SMILES) | IC50 (OAT3; read-out: IC50 OAT3, HEK293-OAT3, 0.1 μM [3H]ES uptake, 5 min) | IC50 (OCT1; read-out: IC50 OCT1, HEK293-OCT1, 0.1 μM [3H]MPP+ uptake, 5 min) | detection in rat plasma [1] | IC50 (OAT3) | IC50 (OCT1) | AUC [1] | Cmax [1] | MRT [1] | Tmax [1] | half-life [1] | maximum plasma concentration (molar) ([1]; rat plasma, after RGE 1.5 g/kg/day po for 7 days) |
| --- | --- | --- | --- | --- | --- | --- | --- | --- | --- | --- | --- |
| CC(C)=CCC[C@](C)(O[C@@H]1O[C@H](CO)[C@@H](O)[C@H](O)[C@H]1O)[C@H]1CC[C@]2(C)[C@@H]1[C@H](O)C[C@@H]1[C@@]3(C)CC[C@H](O)C(C)(C)[C@@H]3CC[C@]12C [Compound K, compound K] | > 100 µM | > 100 µM | not detected | – | – | – | – | – | – | – | – |
| CC(C)=CCC[C@](C)(O[C@@H]1O[C@H](CO[C@@H]2O[C@H](CO)[C@@H](O)[C@H](O)[C@H]2O)[C@@H](O)[C@H](O)[C@H]1O)[C@H]1CC[C@]2(C)[C@@H]1[C@H](O)C[C@@H]1[C@@]3(C)CC[C@H](O[C@@H]4O[C@H](CO)[C@@H](O)[C@H](O)[C@H]4O[C@@H]4O[C@H](CO)[C@@H](O)[C@H](O)[C@H]4O)C(C)(C)[C@@H]3CC[C@]12C [Rb1, ginsenoside Rb1] | – | – | – | > 100 µM | > 100 µM | 455 ± 111 ng·h/mL | 17.8 ± 2.34 ng/mL | 17.1 ± 2.09 h | 3.33 ± 1.15 h | 16.9 ± 5.81 h | – |
| CC(C)=CCC[C@](C)(O)[C@H]1CC[C@]2(C)[C@@H]1[C@H](O)C[C@@H]1[C@@]3(C)CC[C@H](O[C@@H]4O[C@H](CO)[C@@H](O)[C@H](O)[C@H]4O)C(C)(C)[C@@H]3CC[C@]12C [Rh2, ginsenoside Rh2] | – | – | not detected | > 100 µM | > 100 µM | – | – | – | – | – | – |
